These results are taken from US9796733B2, “Imidazo-pyrazine derivatives useful as soluble guanylate cyclase activators” (Merck Sharp & Dohme Corp., priority 2014, dated 2017).

In assay [1] the target is T1, sGC α1/β1 heterodimer (Homo sapiens, UniProt Q02108+Q02153).
T1 construct: expressed in transfected cells; host or cells: CHO-K1 (clone #7, CHO-K1/sGC)
T1 sequence (Q02108 1-690): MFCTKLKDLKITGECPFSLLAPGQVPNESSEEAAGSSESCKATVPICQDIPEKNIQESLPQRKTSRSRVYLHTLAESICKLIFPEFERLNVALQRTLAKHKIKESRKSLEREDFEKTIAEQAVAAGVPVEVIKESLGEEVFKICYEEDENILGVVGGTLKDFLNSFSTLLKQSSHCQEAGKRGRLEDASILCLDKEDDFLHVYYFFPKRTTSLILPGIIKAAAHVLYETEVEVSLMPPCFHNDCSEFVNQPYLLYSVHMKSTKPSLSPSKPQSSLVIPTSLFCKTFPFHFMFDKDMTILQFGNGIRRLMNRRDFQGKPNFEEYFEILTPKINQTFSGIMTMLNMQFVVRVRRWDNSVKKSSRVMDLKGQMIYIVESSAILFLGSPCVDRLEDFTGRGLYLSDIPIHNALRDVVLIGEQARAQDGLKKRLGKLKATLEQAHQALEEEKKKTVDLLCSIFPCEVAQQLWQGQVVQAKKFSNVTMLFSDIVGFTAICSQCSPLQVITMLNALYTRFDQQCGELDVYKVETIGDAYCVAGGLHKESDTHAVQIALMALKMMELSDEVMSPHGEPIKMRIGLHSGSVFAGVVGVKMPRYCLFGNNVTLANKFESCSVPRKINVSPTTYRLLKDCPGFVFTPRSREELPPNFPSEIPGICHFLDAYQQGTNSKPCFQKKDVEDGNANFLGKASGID
T1 sequence (Q02153 1-619): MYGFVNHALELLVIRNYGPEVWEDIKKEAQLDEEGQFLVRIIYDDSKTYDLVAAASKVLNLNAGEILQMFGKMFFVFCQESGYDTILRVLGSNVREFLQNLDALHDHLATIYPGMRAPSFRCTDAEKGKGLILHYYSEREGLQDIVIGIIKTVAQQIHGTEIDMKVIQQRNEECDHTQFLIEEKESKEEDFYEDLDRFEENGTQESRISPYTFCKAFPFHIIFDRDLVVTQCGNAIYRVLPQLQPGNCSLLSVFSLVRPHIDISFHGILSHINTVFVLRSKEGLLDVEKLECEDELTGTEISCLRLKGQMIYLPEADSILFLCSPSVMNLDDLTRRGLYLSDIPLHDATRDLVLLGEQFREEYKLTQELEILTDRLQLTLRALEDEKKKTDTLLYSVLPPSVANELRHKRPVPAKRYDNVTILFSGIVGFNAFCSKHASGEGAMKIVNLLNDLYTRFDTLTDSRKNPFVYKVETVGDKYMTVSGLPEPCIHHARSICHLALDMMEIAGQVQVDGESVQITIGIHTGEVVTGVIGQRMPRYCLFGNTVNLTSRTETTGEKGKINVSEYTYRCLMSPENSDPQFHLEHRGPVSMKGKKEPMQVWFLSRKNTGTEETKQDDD
The assay is described as follows: Cell-based sGC functional assay (CASA assay): cGMP generation in CHO-K1/sGC cells, HTRF detection. Conditions: for Emax: CHO-K1, percent activation relative to standard Compound A in CHO-K1/sGC cells, read-out: % Act.; for EC50: inflection point (IP) of cGMP generation in CHO-K1/sGC cells, 4P fit, activity expressed as percentage of Compound A. The gist of the method: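 cGMP was quantified by HTRF after 1 hr, 37° C exposure of thawed CHO-K1 cells expressing sGC α1/β1 to compound, with or without 1 μM DETA-NO. IBMX (0.5 mM) blocked cGMP breakdown, and DMSO was 2.5% final. Percent of standard Compound A's maximal cGMP was fitted (4P) for inflection point.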
On the technique in general: In TR-FRET formats the signal depends on donor and acceptor labels being close together.

For assay [2], the system named is Spontaneously hypertensive rats (SHR). The assay is described as follows: Acute efficacy in spontaneously hypertensive rats (SHR): telemetry blood pressure lowering after a single oral dose. The format is in vivo, rat. An outline of the steps:
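Values are the maximum peak fall in systolic pressure after one oral dose (mpk), computed hourly against baseline from a vehicle dose given the day before. Rats were conscious, male, spontaneously hypertensive, with femoral-aortic telemetry recording 30 s every 10 min, 14 days post-surgery.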

`Cc1nnc(C2(C)C(=O)Nc3nc(-c4cn5ccnc5c(Cc5ccc(F)cc5)n4)nc(N)c32)s1` (stereo not drawn) [Example 33A, 4-amino-2-(8-(4-fluorobenzyl)imidazo[1,2-a]pyrazin-6-yl)-5-methyl-5-(5-methyl-1,3,4-thiadiazol-2-yl)-5H-pyrrolo[2,3-d]pyrimidin-6(7H)-one]: in assay [1], the Emax came out at 135% and a half-maximal effect (EC50) was put at 129 nM. For the same compound, the “Maximum peak decrease of systolic blood pressure (SBP) in SHR, Cat.” value (“Maximum peak decrease” below) in assay [2] (P.O. 1.0 mpk) is “B (Category B=SBP in SHRs 20-40 mmHg)”.
Regarding `CC1(c2nnc(C3CC3)o2)C(=O)Nc2nc(-c3cn4ccnc4c(Cc4ccc(F)cc4)n3)nc(N)c21` (stereo not drawn) [Example 34A, 4-amino-5-(5-cyclopropyl-1,3,4-oxadiazol-2-yl)-2-(8-(4-fluorobenzyl)imidazo[1,2-a]pyrazin-6-yl)-5-methyl-5H-pyrrolo[2,3-d]pyrimidin-6(7H)-one], in assay [1], the Emax was 150% and the EC50 worked out at 339 nM. Further, in assay [2] (P.O. 3.0 mpk), the “Maximum peak decrease” value is on record as “B (Category B=SBP in SHRs 20-40 mmHg)”.
Taken in the same sequence, the figures for `Cc1nnc(C2(C3CC3)C(=O)Nc3nc(-c4cn5ccnc5c(CCC(F)(F)C(F)(F)F)n4)nc(N)c32)s1` (stereo not drawn) [Example 53A, 4-amino-5-cyclopropyl-5-(5-methyl-1,3,4-thiadiazol-2-yl)-2-(8-(3,3,4,4,4-pentafluorobutyl)imidazo[1,2-a]pyrazin-6-yl)-5H-pyrrolo[2,3-d]pyrimidin-6(7H)-one] were 104%, 132 nM and “C (Category C=SBP in SHRs>40 mmHg)”.
For the compound `CC1(c2nnc(C3CC3)s2)C(=O)Nc2nc(-c3cn4ccnc4c(CCC(F)(F)C(F)(F)F)n3)nc(N)c21` (stereo not drawn) [Example 59A, 4-amino-5-(5-cyclopropyl-1,3,4-thiadiazol-2-yl)-5-methyl-2-(8-(3,3,4,4,4-pentafluorobutyl)imidazo[1,2-a]pyrazin-6-yl)-5H-pyrrolo[2,3-d]pyrimidin-6(7H)-one], in assay [1], the Emax is 97% and the EC50 stood at 67 nM. Further, the “Maximum peak decrease” value in assay [2] (P.O. 1.0 mpk) is recorded as “A (Category A=SBP in SHRs<20 mmHg)”.
The matching figures for `CC1(C(=O)NC2CC2)C(=O)Nc2nc(-c3cn4ccnc4c(CCC(F)(F)C(F)(F)F)n3)nc(N)c21` (stereo not drawn) [Example 60A, 4-amino-N-cyclopropyl-5-methyl-6-oxo-2-(8-(3,3,4,4,4-pentafluorobutyl)imidazo[1,2-a]pyrazin-6-yl)-6,7-dihydro-5H-pyrrolo[2,3-d]pyrimidine-5-carboxamide]: 41%, 88 nM and “A (Category A=SBP in SHRs<20 mmHg)”.
Regarding `CC1(c2ccc(F)cn2)C(=O)Nc2nc(-c3cn4ccnc4c(Cc4ccc(F)cc4)n3)nc(N)c21` (stereo not drawn) [Example 69B, 4-Amino-2-(8-(4-fluorobenzyl)imidazo[1,2-a]pyrazin-6-yl)-5-(5-fluoropyridin-2-yl)-5-methyl-5H-pyrrolo[2,3-d]pyrimidin-6(7H)-one], in assay [1], the Emax was determined as 116% and the EC50 came to 9 nM. In assay [2] (P.O. 0.3 mpk), the “Maximum peak decrease” value is “C (Category C=SBP in SHRs>40 mmHg)”.
Taken in the same sequence, the figures for `CC1(C)C(=O)Nc2nc(-c3cn4ccnc4c(Cc4ccccc4F)n3)nc(N)c21` [Example 70, 4-amino-2-(8-(2-fluorobenzyl)imidazo[1,2-a]pyrazin-6-yl)-5,5-dimethyl-5H-pyrrolo[2,3-d]pyrimidin-6(7H)-one] were 109%, 21 nM and “B (Category B=SBP in SHRs 20-40 mmHg)”.
Consider `CC1(C)C(=O)Nc2nc(-c3cn4ccnc4c(Cc4cccc(F)c4)n3)nc(N)c21` [Example 71, 4-amino-2-(8-(3-fluorobenzyl)imidazo[1,2-a]pyrazin-6-yl)-5,5-dimethyl-5H-pyrrolo[2,3-d]pyrimidin-6(7H)-one], for which, in assay [1], the Emax is 109% and the midpoint of the response, the EC50, lay at 44 nM. In addition, the “Maximum peak decrease” value in assay [2] (P.O. 1.0 mpk) is reported as “C (Category C=SBP in SHRs>40 mmHg)”.
Taken in the same sequence, the figures for `CC1(C)C(=O)Nc2nc(-c3cn4ccnc4c(Cc4ccccc4)n3)nc(N)c21` [Example 76, 4-amino-2-(8-benzylimidazo[1,2-a]pyrazin-6-yl)-5,5-dimethyl-5H-pyrrolo[2,3-d]pyrimidin-6(7H)-one] were 119%, 91 nM and “B (Category B=SBP in SHRs 20-40 mmHg)”.
For the compound `CCC1(C2CC2)C(=O)Nc2nc(-c3cn4ccnc4c(CCC(F)(F)C(F)(F)F)n3)nc(N)c21` (stereo not drawn) [Example 86B, 4-amino-5-cyclopropyl-5-ethyl-2-(8-(3,3,4,4,4-pentafluorobutyl)imidazo [1,2-a]pyrazin-6-yl)-5H-pyrrolo[2,3-d]pyrimidin-6(7H)-one], in assay [1], the Emax is 102% and the midpoint of the response, the EC50, lay at 201 nM. Further, the “Maximum peak decrease” value in assay [2] (P.O. 3.0 mpk) is given as “A (Category A=SBP in SHRs<20 mmHg)”.
Take `CC1(c2ccccc2)C(=O)Nc2nc(-c3cn4ccnc4c(Cc4c(F)ccc(F)c4F)n3)nc(N)c21` (stereo not drawn) [Example 100B, 4-amino-5-methyl-5-phenyl-2-(8-(2,3,6-trifluorobenzyl)imidazo[1,2-a]pyrazin-6-yl)-5H-pyrrolo[2,3-d]pyrimidin-6(7H)-one]: in assay [1], the Emax was 96% and the EC50 came to 13 nM. The “Maximum peak decrease” value in assay [2] (P.O. 0.3 mpk) is on record as “A (Category A=SBP in SHRs<20 mmHg)”.
Regarding `CC1(c2ccc(F)cc2)C(=O)Nc2nc(-c3cn4ccnc4c(-c4ccccc4)n3)nc(N)c21` (stereo not drawn) [Example 112A, 4-amino-5-(4-fluorophenyl)-5-methyl-2-(8-phenylimidazo[1,2-a]pyrazin-6-yl)-5H-pyrrolo[2,3-d]pyrimidin-6(7H)-one], in assay [1], the Emax was found to be 89% and it took 289 nM to reach a half-maximal effect (EC50). For the same compound, the “Maximum peak decrease” value in assay [2] (P.O. 3.0 mpk) was “B (Category B=SBP in SHRs 20-40 mmHg)”.
With `CC1(c2ccc(F)cc2)C(=O)Nc2nc(-c3cn4ccnc4c(CC4CCC4)n3)nc(N)c21` (stereo not drawn) [Example 114A, 4-amino-2-(8-(cyclobutylmethyl)imidazo [1,2-a]pyrazin-6-yl)-5-(4-fluorophenyl)-5-methyl-5H-pyrrolo[2,3-d]pyrimidin-6(7H)-one], in assay [1], the Emax turned out to be 94% and it took 57 nM to reach a half-maximal effect (EC50). The “Maximum peak decrease” value in assay [2] (P.O. 0.3 mpk) is listed as “C (Category C=SBP in SHRs>40 mmHg)”.
Taken in the same sequence, the figures for `CC1(c2ccc(F)cn2)C(=O)Nc2nc(-c3cn4ccnc4c(CC4CCC4)n3)nc(N)c21` (stereo not drawn) [Example 115B, 4-amino-2-(8-(cyclobutylmethyl)imidazo [1,2-a]pyrazin-6-yl)-5-(5-fluoropyridin-2-yl)-5-methyl-5H-pyrrolo[2,3-d]pyrimidin-6(7H)-one] were 111%, 14 nM and “C (Category C=SBP in SHRs>40 mmHg)”.
Turning to `CC1(c2ccc(Cl)cc2)C(=O)Nc2nc(-c3cn4ccnc4c(CC4CCC4)n3)nc(N)c21` (stereo not drawn) [Example 118A, 4-amino-5-(4-chlorophenyl)-2-(8-(cyclobutylmethyl)imidazo [1,2-a]pyrazin-6-yl)-5-methyl-5H-pyrrolo[2,3-d]pyrimidin-6(7H)-one], in assay [1], the Emax is 76% and the EC50 is 33 nM. Moreover, in assay [2] (P.O. 0.3 mpk), the “Maximum peak decrease” value is listed as “C (Category C=SBP in SHRs>40 mmHg)”.

In general, EC50 refers to the concentration giving half of the maximal effect. A higher EC50 goes with a less potent agent.
